What all share (assay type): cell-based, human
One assay relates to A549 lung cancer cell. In words: MTT anti-proliferative assay, A549. Conditions: for IC50: MTT, 48 h. The procedure, abridged:
(§1)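 MTT read-out of net cell-growth inhibition after compound exposure of cells seeded in 96-well plates. Lines were ATCC-sourced and grown in DMEM plus FBS.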
(In general: Tetrazolium dyes change colour on reduction, which living cells bring about.)

In the next assay the test system is AGS gastric cancer cell. In words: MTT anti-proliferative assay, AGS. Particulars: for IC50: MTT, 48 h. The procedure, abridged: as §1
Assay [1] deals with BEL-7402 liver cancer cell. Nature of the assay: MTT anti-proliferative assay, BEL-7402. Conditions: MTT, 48 h. The procedure, abridged: as §1
The test system of assay [2] is HCT116 colectal cancer cell. In words: MTT anti-proliferative assay, HCT116. Conditions: for IC50: MTT, 48 h, read-out: IC50 HCT-116. The essentials:
as §1

Assay [3] relates to HeLa cervical cancer cell. In words: MTT anti-proliferative assay, HeLa. Conditions: MTT, 48 h. The procedure, abridged:
as §1

A further assay concerns HepG2 hepatoma cell. Nature of the assay: MTT anti-proliferative assay, HepG2. Particulars: MTT, 48 h; read-out: IC50 HepG-2. The procedure, abridged: as §1
The test system of a further assay is L-02 normal liver cell. In words: MTT assay, L-02 normal cells. Particulars: 48 h. The essentials:
as §1

Assay [4] has as its system MGC-803 late stage differentiation gastric cancer cell. Nature of the assay: MTT anti-proliferative assay, MGC-803. Conditions: MTT, 48 h. The procedure, abridged:
as §1

The next assay has as its system MCF-7 breast cancer cell. Nature of the assay: MTT anti-proliferative assay, MCF-7. Particulars: MTT, 48 h. The essentials: as §1
Assay [5] concerns MCF-10A normal breast cell. Nature of the assay: MTT assay, MCF-10A normal cells. Conditions: 48 h. The essentials: as §1
Assay [6] concerns Raji B lymphoblastoid cell. In words: MTT anti-proliferative assay, Raji. Particulars: for IC50: MTT, 48 h, read-out: IC50 Raji. The essentials: as §1
In assay [7] the test system is SGC-7901 early differentiation gastric cancer cell. Nature of the assay: MTT anti-proliferative assay, SGC-7901. Conditions: MTT, 48 h. The essentials:
as §1

The subject of assay [8] is diffuse large B-cell lymphoma SU-DHL-10 cell. In words: MTT anti-proliferative assay, SU-DHL-10. Particulars: for IC50: MTT, 48 h, read-out: IC50 SU-DHL-10. The essentials: as §1

Where only a bound is given, the exact number is not on record here.

Regarding `N#C/C(=C\c1ccccc1Br)c1ccc(C(F)(F)F)cc1` [Compound 1f2i], the IC50 is greater than 100 µM in the assay with A549 lung cancer cell; 42 ± 11.7 µM in the assay with AGS gastric cancer cell; greater than 100 µM in [1]; greater than 100 µM in assay [2]; greater than 100 µM in [3]; greater than 100 µM with HepG2 hepatoma cell. The half-maximal inhibitory concentration (IC50) (in the assay on L-02 normal liver cell; in assay [4]; in the assay with MCF-7 breast cancer cell; in assay [5]; in assay [6]; in [7]) was greater than 100 µM each time. In addition, the half-maximal inhibitory concentration (IC50) in [8] was greater than 100 µM. Moreover, the “SI (selectivity index), IC50 (L-02)/IC50 (AGS)” value (“SI (selectivity index) … (AGS)” for short) in the assay on AGS gastric cancer cell was greater than 2.3.
For the molecule `N#C/C(=C\c1c(F)cccc1Cl)c1ccc(C(F)(F)F)cc1` [Compound 1f2j], the IC50 (in the assay with A549 lung cancer cell; in the assay with AGS gastric cancer cell; in assay [1]; in [2]; in assay [3]; with HepG2 hepatoma cell) was greater than 100 µM in each case. For the same molecule, the IC50 (in the assay with L-02 normal liver cell; in [4]; in the assay on MCF-7 breast cancer cell; in [5]; in [6]; in assay [7]) was greater than 100 µM in each case. Also, the IC50 in assay [8] was greater than 100 µM.
Regarding `N#C/C(=C\c1ccc(C(F)(F)F)cc1)c1ccc(C(F)(F)F)cc1` [Compound 1f2k], the “SI (selectivity index), IC50 (L-02)/IC50 (A549)” value with A549 lung cancer cell is greater than 2.0. Further, the concentration for half-maximal inhibition (IC50) is 47.8 ± 4 µM in the assay with A549 lung cancer cell; 53.2 ± 13.2 µM with AGS gastric cancer cell; greater than 100 µM in assay [1]; greater than 100 µM in assay [2]; greater than 100 µM in assay [3]; greater than 100 µM in the assay on HepG2 hepatoma cell. Moreover, the half-maximal inhibitory concentration (IC50) with L-02 normal liver cell is greater than 100 µM; in [4] it was greater than 100 µM; in the assay on MCF-7 breast cancer cell it was greater than 100 µM; in assay [5], greater than 100 µM; in assay [6] it was 77.4 ± 13.6 µM; in assay [7], greater than 100 µM. Also, in [8], the IC50 was greater than 100 µM. The “SI (selectivity index) … (AGS)” value in the assay with AGS gastric cancer cell was greater than 1.8.
Consider `N#C/C(=C\c1cccc(C(F)(F)F)c1)c1ccc(C(F)(F)F)cc1` [Compound 1f2l], for which the IC50 (in the assay on A549 lung cancer cell; with AGS gastric cancer cell; in [1]; in [2]; in assay [3]; in the assay on HepG2 hepatoma cell) was greater than 100 µM each time. In addition, the IC50 was greater than 100 µM in the assay with L-02 normal liver cell; greater than 100 µM in assay [4]; greater than 100 µM in the assay on MCF-7 breast cancer cell; greater than 100 µM in assay [5]; 72.1 ± 7.2 µM in assay [6]; greater than 100 µM in assay [7]. Further, in assay [8], the half-inhibitory concentration (IC50) is 50.1 ± 20.9 µM. Further, the “SI (selectivity index), IC50 (L-02)/IC50 (Raji)” value in [6] is listed as greater than 1.3. In assay [8], the “SI (selectivity index), IC50 (L-02)/IC50 (SU-DHL-10)” value is reported as greater than 1.9.
For the molecule `N#C/C(=C\c1ccccc1C(F)(F)F)c1ccc(C(F)(F)F)cc1` [Compound 1f2m], in the assay on A549 lung cancer cell, the “SI (selectivity index), IC50 (L-02)/IC50 (A549)” value is given as greater than 2.6. In addition, the IC50 (with A549 lung cancer cell; in the assay with AGS gastric cancer cell; in assay [1]; in assay [2]; in assay [3]; in the assay with HepG2 hepatoma cell) was greater than 100 µM in each case. In addition, the half-maximal inhibitory concentration (IC50) (in the assay on L-02 normal liver cell; in assay [4]; with MCF-7 breast cancer cell; in assay [5]; in assay [6]; in assay [7]) was greater than 100 µM in each case. The IC50 in assay [8] was greater than 100 µM. In the assay with AGS gastric cancer cell, the “SI (selectivity index) … (AGS)” value was greater than 2.1. Further, in assay [2], the “SI (selectivity index), IC50 (L-02)/IC50 (HCT-116)” value (“SI (selectivity index) … (HCT-116)” for short) is greater than 1.7.
Regarding `Cc1ccc(/C=C(\C#N)c2ccc(C(F)(F)F)cc2)cc1` [Compound 1f2n], the IC50 is 37.9 ± 1 µM in the assay on A549 lung cancer cell; 46.4 ± 15 µM in the assay with AGS gastric cancer cell; greater than 100 µM in [1]; 57.3 ± 3.2 µM in [2]; greater than 100 µM in [3]; greater than 100 µM in the assay with HepG2 hepatoma cell. The IC50 (in the assay with L-02 normal liver cell; in assay [4]; with MCF-7 breast cancer cell; in assay [5]; in assay [6]; in assay [7]) was greater than 100 µM throughout. Further, the IC50 in assay [8] was greater than 100 µM. The “SI (selectivity index) … (AGS)” value in the assay with AGS gastric cancer cell was greater than 2.4.
Consider `Cc1cccc(/C=C(\C#N)c2ccc(C(F)(F)F)cc2)c1` [Compound 1f2o], for which the half-maximal inhibitory concentration (IC50) is greater than 100 µM with A549 lung cancer cell; 41.2 ± 1.1 µM with AGS gastric cancer cell; greater than 100 µM in [1]; greater than 100 µM in assay [2]; greater than 100 µM in [3]; greater than 100 µM in the assay with HepG2 hepatoma cell. The IC50 (in the assay on L-02 normal liver cell; in [4]; with MCF-7 breast cancer cell; in assay [5]; in [6]; in assay [7]) was greater than 100 µM each time. In addition, the 50% inhibitory concentration (IC50) in assay [8] was greater than 100 µM.
Turning to `CCc1ccc(/C=C(\C#N)c2ccc(C(F)(F)F)cc2)cc1` [Compound 1f2p], the IC50 (in the assay on A549 lung cancer cell; in the assay on AGS gastric cancer cell; in [1]; in assay [2]; in [3]; in the assay with HepG2 hepatoma cell) was greater than 100 µM each time. Besides, the IC50 (in the assay on L-02 normal liver cell; in [4]; in the assay with MCF-7 breast cancer cell; in assay [5]; in assay [6]; in assay [7]) was greater than 100 µM each time. The 50% inhibitory concentration (IC50) in [8] is greater than 100 µM.
In the case of `CC(C)c1ccc(/C=C(\C#N)c2ccc(C(F)(F)F)cc2)cc1` [Compound 1f2q], the 50% inhibitory concentration (IC50) (in the assay on A549 lung cancer cell; in the assay with AGS gastric cancer cell; in [1]; in assay [2]; in [3]; in the assay on HepG2 hepatoma cell) was greater than 100 µM throughout. The IC50 in the assay with L-02 normal liver cell is greater than 100 µM; in assay [4] it was greater than 100 µM; with MCF-7 breast cancer cell it was greater than 100 µM; in assay [5], greater than 100 µM; in assay [6], 34.9 ± 4.5 µM; in assay [7], greater than 100 µM. Besides, the IC50 in assay [8] worked out at 38.4 ± 3.6 µM. Moreover, in assay [6], the “SI (selectivity index), IC50 (L-02)/IC50 (Raji)” value was greater than 2.8.
On to `Cc1cc(C)c(/C=C(\C#N)c2ccc(C(F)(F)F)cc2)c(C)c1` [Compound 1f2r], for which the 50% inhibitory concentration (IC50) (with A549 lung cancer cell; with AGS gastric cancer cell; in assay [1]; in assay [2]; in assay [3]; in the assay on HepG2 hepatoma cell) was greater than 100 µM each time. Further, the IC50 (in the assay on L-02 normal liver cell; in assay [4]; in the assay with MCF-7 breast cancer cell; in assay [5]; in [6]; in assay [7]) was greater than 100 µM each time. Further, in assay [8], the half-maximal inhibitory concentration (IC50) is greater than 100 µM.
In the case of `COc1ccc(/C=C(\C#N)c2ccc(C(F)(F)F)cc2)cc1` [Compound 1f2s], the concentration for half-maximal inhibition (IC50) with A549 lung cancer cell is greater than 100 µM; with AGS gastric cancer cell, greater than 100 µM; in assay [1], greater than 100 µM; in [2] it was 47.8 ± 0.7 µM; in assay [3], greater than 100 µM; in the assay on HepG2 hepatoma cell, greater than 100 µM. Besides, the IC50 (with L-02 normal liver cell; in assay [4]; in the assay with MCF-7 breast cancer cell; in assay [5]; in assay [6]; in assay [7]) was greater than 100 µM in each case. The IC50 in assay [8] is greater than 100 µM. In addition, the “SI (selectivity index) … (HCT-116)” value in assay [2] is listed as greater than 2.0.
On to `COc1cccc(/C=C(\C#N)c2ccc(C(F)(F)F)cc2)c1` [Compound 1f2t], for which the IC50 in the assay with A549 lung cancer cell was greater than 100 µM; with AGS gastric cancer cell, 77.5 ± 3.9 µM; in [1], greater than 100 µM; in [2], 33.2 ± 0.2 µM; in assay [3], greater than 100 µM; with HepG2 hepatoma cell, greater than 100 µM. Also, the IC50 (with L-02 normal liver cell; in assay [4]; in the assay with MCF-7 breast cancer cell; in assay [5]; in assay [6]; in assay [7]) was greater than 100 µM each time. The IC50 in assay [8] was greater than 100 µM. Further, the “SI (selectivity index) … (AGS)” value in the assay with AGS gastric cancer cell is reported as greater than 1.2. Besides, the “SI (selectivity index) … (HCT-116)” value in assay [2] is reported as greater than 3.0.
Turning to `COc1cc(/C=C(\C#N)c2ccc(C(F)(F)F)cc2)cc(OC)c1OC` [Compound 1f2u], the IC50 (with A549 lung cancer cell; in the assay on AGS gastric cancer cell; in assay [1]; in [2]; in assay [3]; with HepG2 hepatoma cell) was greater than 100 µM each time. Also, the IC50 in the assay with L-02 normal liver cell was greater than 100 µM; in assay [4] it was greater than 100 µM; with MCF-7 breast cancer cell, greater than 100 µM; in [5], 92.5 ± 10.2 µM; in assay [6] it was greater than 100 µM; in [7], greater than 100 µM. Also, the IC50 in [8] was greater than 100 µM.
`N#C/C(=C\c1ccc(Oc2ccccc2)cc1)c1ccc(C(F)(F)F)cc1` [Compound 1f2v]: the IC50 (with A549 lung cancer cell; with AGS gastric cancer cell; in assay [1]; in [2]; in [3]; in the assay with HepG2 hepatoma cell) was greater than 100 µM each time. Also, the IC50 (in the assay on L-02 normal liver cell; in assay [4]; in the assay on MCF-7 breast cancer cell; in [5]; in assay [6]; in assay [7]) was greater than 100 µM throughout. In [8], the half-maximal inhibitory concentration (IC50) is greater than 100 µM.

Usually IC50 stands for the point on the concentration scale where inhibition reaches its midpoint.
